The source of these data is US8536165B2, “Azabiphenylaminobenzoic acid derivatives as DHODH inhibitors” (Almirall, S.A., priority 2007, dated 2013).

The term IC50 denotes the concentration that gives 50% inhibition.

Each structure is given as a SMILES string.

One assay relates to HIV. To be noted: at concentration that can be obtained with conventional dosing; cited from earlier work.
In another assay the target is human DHODH (Homo sapiens (Human), UniProt Q02127). Put plainly: Inhibition of Human DHODH Activity Assay. It counts as biochemical. To be noted: chromogen reduction assay with DCIP, human enzyme extract, 10 min at room temperature; read-out: hDHODH IC50. The protocol:
DHODH activity and its inhibition were studied using a chromogen reduction assay with DCIP (2,6-dichlorophenol-indophenol). […] Enzyme extracts (8 μl, ˜1.5 μg of human protein) were incubated in 96-well plates. The assay mixture (200 μl) contained 200 μM CoQD, 100 μM L-DHO, 120 μM DCIP in the assay buffer (100 mM HEPES pH 8.0, 150 mM NaCl, 10% Glicerol, 0.05% Triton X-100) and 2 μl of test compound. The compounds were dissolved in DMSO at a stock concentration of 1 mM, and tested at different concentrations […] to calculate an IC50 (concentration of inhibitor required for 50% of inhibition).
The reaction was initiated by adding the enzyme and then incubated for 10 min at room temperature before measuring DCIP reduction by counting a decrease in absorbance at 600 nm using standard instrumentation (Spectramax).
All reactions were carried out in duplicate and graphs, determining IC50 values for each compound, were plotted using the ABase software.

human DHODH, sequence (Q02127 whole entry): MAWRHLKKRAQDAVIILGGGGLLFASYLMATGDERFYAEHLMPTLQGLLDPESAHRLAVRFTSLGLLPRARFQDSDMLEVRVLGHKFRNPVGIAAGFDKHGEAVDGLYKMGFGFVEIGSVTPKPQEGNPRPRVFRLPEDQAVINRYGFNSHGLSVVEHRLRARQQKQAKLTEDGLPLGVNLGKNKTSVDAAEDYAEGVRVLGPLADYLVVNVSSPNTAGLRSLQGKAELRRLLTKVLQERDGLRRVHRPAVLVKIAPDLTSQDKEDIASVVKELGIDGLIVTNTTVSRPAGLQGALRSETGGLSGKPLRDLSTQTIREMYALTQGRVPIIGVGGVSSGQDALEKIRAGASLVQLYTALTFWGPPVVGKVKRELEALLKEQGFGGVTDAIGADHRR

Consider `Cc1oncc1C(=O)Nc1ccc(C(F)(F)F)cc1` [Leflunomide], for which the “reduction of HIV replication” value in the assay on HIV is reported as “about 75%”.

`O=C(O)c1cc(C2CC2)ccc1Nc1cnc(-c2cc(C(F)(F)F)ccc2F)nc1` [Example 104, 5-Cyclopropyl-2-(2-(2-fluoro-5-(trifluoromethyl)phenyl)pyrimidin-5-ylamino)benzoic acid]: the IC50 at human DHODH was found to be 0.021 µM.
